Key:
[1] = LogD7.4 determination of xenopeptides (octanol-water); assay type: physicochemical; conditions: shake-flask n-octanol/HEPES buffer (20 mM, pH 7.4); 10 μL of 10 mg/mL xenopeptide in water + 90 μL buffer + 100 μL n-octanol; shaken 1400 rpm 24 h; centrifuged, 4 °C 1 h; HPLC, extinction 280 nm; log(Aoctanol/Awater); triplicate
Method: LogD7.4 determination of xenopeptides
Octanol-water partition coefficient D at pH 7.4 (logD7.4) was determined as previously reported with slight modification.5
Scheme S3 illustrates the logD7.4 determination procedures of all xenopeptides in this study. Briefly, 10 μL of 10 mg/mL xenopeptides in water were diluted with 90 μL HEPES buffer (20 mM, pH 7.4) in 1.5 mL reaction tubes. 100 μL n-octanol were then added. The tubes were shaken at 1400 rpm for 24 h. Afterwards, the tubes were centrifuged followed by storage at 4 °C for 1 h to separate n-octanol and water phases. 70 μL of each phase were injected for HPLC analysis. The extinction at 280 nm was monitored and the peak area (A) of the xenopeptides was calculated. LogD7.4 was calculated as log(Aoctanol / Awater).
All experiments were performed in triplicate. […]
Cas9 RNP/ssDNA nanocarriers. […]

[2] = Characterization of Cas9 RNP nanocarriers by DLS (size, PDI, zeta potential); assay type: physicochemical; conditions: N/P ratio 24, RNP 75 nM, three technical replicates; for PDI of Cas9 RNP nanocarriers / hydrodynamic size (z-average) of Cas9 RNP nanocarriers: DLS, HBG pH 7.4, mean ± SD; for zeta potential of Cas9 RNP nanocarriers: electrophoretic light scattering, HEPES 20 mM pH 7.4, mean ± SD
Method: Preparation of Cas9 RNP and Cas9 RNP/ssDNA nanocarriers
Cas9 protein was expressed, purified, and stored at -80 °C in storage buffer (20 mM HEPES, 200 mM KCl, 10 mM MgCl 2, 1 mM DTT, 30 % glycerol) as described previously.6 Cas9 protein and sgRNA (dissolved in RNase-free water) were mixed at 1:1 molar ratio and incubated at RT for 15 min to form the Cas9/sgRNA ribonucleoprotein (RNP) complexes. Afterwards, Cas9 RNP was added into the xenopeptide solution in HBG buffer (pH 7.4) at an N/P (nitrogen t o phosphate of sgRNA) ratio of 24. The solution was mixed thoroughly by pipetting up and down and incubated at RT for another 15 min to generate the final Cas9 RNP nanocarriers. In case of preparing Cas9 RNP/ssDNA nanocarriers for HDR experiments, Cas9 RNP was mixed with ssDNA HDR template at 1:1 molar ratio and then added into the xenopeptide solution in HBG buffer (pH 7.4) at an N/P (nitrogen to phosphate of sgRNA plus ssDNA) ratio of 12. The solution was mixed and incubated for 40 min to generate the Cas9 RNP/ssDNA nanocarriers.
Characterization of Cas9 RNP nanocarriers
The hydrodynamic size, PDI and zeta potential of Cas9 RNP nanocarriers were measured by DLS using a Zetasizer Nano ZS (Malvern Instruments, UK). Cas9 RNP nanocarriers were prepared as desc ribed above. The hydrodynamic size of Cas9 RNP nanocarriers containing 1.25 μg Cas9 protein and 0.25 μg sgRNA (Cas9/sgRNA, 1:1 molar ratio) in 100 μL HBG was measured.
Afterwards, 700 μL HEPES buffer (20 mM, pH 7.4) were added to each sample and the soluti on was mixed for the zeta potential measurement. For the dilution stability study, Cas9 RNP nanocarriers were prepared at an RNP concentration of 375 nM (6.25 μg Cas9 protein and 1.25 μg sgRNA) and then diluted with HBG buffer to a series of RNP concentrat ions (75, 50, 25, 10, 5, 2.5, 1, 0.5, and 0.1 nM). The size and zeta potential of diluted samples were measured as described above.

HeLa eGFP/tub cells = assay: eGFP knockout study by Cas9 RNP nanocarriers, flow cytometry; assay type: cell-based; conditions: 1 nM RNP, 48 h treatment, N/P 24
Method: HeLa WT, HeLa eGFP/tub, HeLa GFPd2 (destabilized eGFP), CT26 eGFP/luc and N2a eGFP/luc cells were grown in DMEM medium supplemented with 10 % FBS, 100 U/mL penicillin, and 100 μg/mL streptomycin. The cells were cultured in ventilated flasks in the cell incubator at 37 °C and 5 % CO2 in a humidified atmosphere. The cells were passaged at a confluency of […]
Cells were harvested and resuspended in 600 μL of FACS buffer (PBS buffer containing 10 % FBS). The samples were ana-lyzed by flow cytometry on a CytoFLEX S flow cytometer (Beckman Coulter, CA, USA). For eGFP knockout and cellular uptake experiments, 0.6 μL of 1 μg/μL DAPI was added to each sample for differentiating live and dead cells before the measurement. The DAPI signal and BFP fluorescence were detected with 405 nm excitation and 450 nm emission. The eGFP and ATTO488 fluorescence was assayed with 488 nm excitation and 530 nm emission. The ATTO647N fluorescence was assayed with 640 nm excitation and 670 nm emission. Ten thousand of isolated live cells were counted and evaluated. The data were analyzed using FlowJo 7.6.5 by FlowJo, LLC (Becton, Dickinson and Company, USA). […]
Endosomal escape of Cas9 RNP nanocarriers […]
Next, the […]
cells were washed twice with PBS and then fixed with 4 % PFA at RT for 40 min. Afterwards, the cells were washed and incubated with 2 µg/mL DAPI (for staining cell nuclei) for 30 min. Then, the staining solution was removed and 300 μL fresh PBS were added. The slides w ere stored at 4 °C in the dark until the measurement. […]
Then, the image was conv erted into 8-bit type. The mRuby3/gal8 spots were further determined by Threshold tool, and the number of the spots in the cell cytosol per cell were counted by Analyze Particles tool.
One day prior to the treatments, HeLa eGFP/tub cell s were seeded into 96 -well plates at a density of 5000 cells/well. On the next day, the medium was replaced with 80 μL of fresh medium. 20 μL of Cas9 RNP nanocarriers were added to each well resulting in a series of concentrations of RNP (100, 75, 50, 25, 10, 5, 2.5, 1, 0.5, and 0.1 nM). Lipofectamine CRISPRMAX was tested at the same concentrations of RNP with the preparation procedures as recommended by the manufacturer. The cells were incubated for 48 h. Afterwards, the cells were trypsinized and transfer red to 24-well plates, and incubated for another 72 h. Then, the cells were harvested and prepared for flow cytometry analysis. All experiments were performed in triplicate. eGFP to BFP conversion (HDR) study
One day prior to the treatments, HeLa GFPd2 cel ls were seeded into 96 -well plates at a density of 5000 cells/well. On the next day, the medium was replaced with 80 μL of fresh medium. 20 μL of Cas9 RNP/ssDNA nanocarriers containing different molar ratios of RNP/ssDNA were added to each well resulting i n a series of concentrations of RNP (100, 75, 50, 25, 10, 5, 2.5, 1, 0.5, and 0.1 nM). Lipofectamine CRISPRMAX was tested at the same concentrations of RNP and ssDNA with the prepara-tion procedures as recommended by the manufacturer. The cells were incubat ed for 48 h. Afterwards, the cells were trypsinized and transferred to 24 -well plates, and incubated for another 72 h. Then, the cells were harvested and prepared for flow cytom-etry analysis. […]
Half maximal effective concentration (EC50) values were calculated by GraphPad prism 5. […] All other data were analyzed with GraphPad prism 5 and presented as arithmetic mean ± standard deviation (SD) of at least triplicates. […]

| logD [1] | PDI of Cas9 RNP nanocarriers [2] | hydrodynamic size (z-average) of Cas9 RNP nanocarriers [2] | zeta potential of Cas9 RNP nanocarriers [2] | Compound | eGFP knockout (HeLa eGFP/tub cells) |
| --- | --- | --- | --- | --- | --- |
| -0.33 |  |  |  | CCCCC/C=C\C/C=C\CCCCCCCC(=O)NCCCC[C@H](NC(=O)CCCCCCC/C=C\C/C=C\CCCCC)C(=O)NCCCC[C@H](NC(=O)CCCC(=O)NCCCNCCNCCCNC(=O)[C@H](Cc1ccc(O)cc1)NC(=O)[C@H](Cc1ccc(O)cc1)NC(=O)[C@H](Cc1ccc(O)cc1)NC(=O)[C@@H](N)CCCCN=[N+]=[N-])C(=O)NCCCNCCNCCCNC(=O)CCCC(=O)N[C@@H](Cc1ccc(O)cc1)C(=O)N[C@@H](Cc1ccc(O)cc1)C(=O)N[C@@H](Cc1ccc(O)cc1)C(=O)O [GEIPA1-LinA] |  |
| -1.51 | 0.19 ± 0.02 | 189.1 ± 4.2 nm | 13.7 ± 1.2 mV | CCCCC/C=C\C/C=C\CCCCCCCC(=O)NCCCC[C@H](NC(=O)CCCCCCC/C=C\C/C=C\CCCCC)C(=O)NCCCC[C@H](NC(=O)[C@H](Cc1c[nH]cn1)NC(=O)CNCC(=O)NCCNCCNCCNCCNC(=O)[C@H](Cc1c[nH]cn1)NC(=O)[C@H](Cc1ccc(O)cc1)NC(=O)[C@H](Cc1ccc(O)cc1)NC(=O)[C@H](Cc1ccc(O)cc1)NC(=O)[C@@H](N)CCCCN=[N+]=[N-])C(=O)N[C@@H](Cc1c[nH]cn1)C(=O)NCCNCCNCCNCCNC(=O)CNCC(=O)N[C@@H](Cc1c[nH]cn1)C(=O)N[C@@H](Cc1ccc(O)cc1)C(=O)N[C@@H](Cc1ccc(O)cc1)C(=O)N[C@@H](Cc1ccc(O)cc1)C(=O)O [IDAtp1-H-LinA] |  |
|  |  |  |  | CCCCC/C=C\C/C=C\CCCCCCCC(=O)NCCCC[C@H](NC(=O)CCCCCCC/C=C\C/C=C\CCCCC)C(=O)NCCCC[C@H](NC(=O)[C@H](Cc1c[nH]cn1)NC(=O)CCC(=O)NCCNCCNCCNCCNC(=O)[C@H](Cc1c[nH]cn1)NC(=O)[C@H](Cc1ccc(O)cc1)NC(=O)[C@H](Cc1ccc(O)cc1)NC(=O)[C@H](Cc1ccc(O)cc1)NC(=O)[C@@H](N)CCCCN=[N+]=[N-])C(=O)N[C@@H](Cc1c[nH]cn1)C(=O)NCCNCCNCCNCCNC(=O)CCC(=O)N[C@@H](Cc1c[nH]cn1)C(=O)N[C@@H](Cc1ccc(O)cc1)C(=O)N[C@@H](Cc1ccc(O)cc1)C(=O)N[C@@H](Cc1ccc(O)cc1)C(=O)O [Stp1-H-LinA] | ~80% |
|  | 0.28 ± 0.02 | 179.8 ± 5.3 nm | 13.4 ± 2.1 mV | K(N3)-C-Y3-GEIPA2-K(K(OHSteA)2)-GEIPA2-Y3-C [GEIPA2-C-OHSteA, lipid-modified xenopeptide, X2-C-OHSteA architecture, artificial amino acid GEIPA] |  |

| Compound | logD [1] | PDI of Cas9 RNP nanocarriers [2] | hydrodynamic size (z-average) of Cas9 RNP nanocarriers [2] | zeta potential of Cas9 RNP nanocarriers [2] | eGFP knockout (HeLa eGFP/tub cells) |
| --- | --- | --- | --- | --- | --- |
| CCCCC/C=C\C/C=C\CCCCCCCC(=O)NCCCC[C@H](NC(=O)CCCCCCC/C=C\C/C=C\CCCCC)C(=O)NCCCC[C@H](NC(=O)CNCC(=O)NCCNCCNCCNCCNC(=O)[C@H](Cc1ccc(O)cc1)NC(=O)[C@H](Cc1ccc(O)cc1)NC(=O)[C@H](Cc1ccc(O)cc1)NC(=O)[C@@H](N)CCCCN=[N+]=[N-])C(=O)NCCNCCNCCNCCNC(=O)CNCC(=O)N[C@@H](Cc1ccc(O)cc1)C(=O)N[C@@H](Cc1ccc(O)cc1)C(=O)N[C@@H](Cc1ccc(O)cc1)C(=O)O [IDAtp1-LinA] | -1.11 |  |  |  |  |
